What all share (format): biochemical
Assay [1] addresses T1, GST-tagged Tankyrase-1 (1023-1327 aa) (Homo sapiens, UniProt O95271).
T1 construct: GST-tagged Tankyrase-1 (1023-1327 aa)
Nature of the assay: Tankyrase 1 autoparsylation HTRF enzyme assay. The protocol:
(§1) Biochemical Activity Testing of Tankyrase 1 and 2: Autoparsylation Assay
(§2) The autoparsylation assay is run in two steps: the enzymatic reaction in which GST-tagged Tankyrase-1, resp Tankyrase-2 transferred biotinylated ADP-ribose to itself from biotinylated NAD as co-substrate and the detection reaction where a time resolved FRET between cryptate labelled anti-GST bound to the GST tag of the enzyme and Xlent® labelled-streptavidin bound the biotin-parsylation residue is analysed. The autoparsylation activity was detectable directly via the increase in HTRF signal.
(§3) The autoparsylation assay is performed as 384-well HTRF® (Cisbio, Codolet, France) assay format in Greiner low volume nb 384-well microtiter plates and is used for high throughput screen. 250 nM GST-tagged Tankyrase-1 (1023-1327 aa), respectively about 250 nM GST-tagged Tankyrase-2 (873-1166 aa) and 5 μM bio-NAD (Biolog, Life science Inst., Bremen, Germany) as co-substrate are incubated in a total volume of 5 μl (50 mM HEPES, 4 mM Mg-chloride, 0.05% Pluronic F-68, 1.4 mM DTT, 0.5% DMSO, pH 7.7) in the absence or presence of the test compound (10 dilution concentrations) for 90 min at 30° C. The reaction is stopped by the addition of 1 μl 50 mM EDTA solution. 2 μl of the detection solution (1.6 μM SA-Xlent® (Cisbio, Codolet, France), 7.4 nM Anti-GST-K® (Eu-labelled anti-GST, Cisbio, Codolet, France) in 50 mM HEPES, 800 mM KF, 0.1° A. BSA, 20 mM EDTA, 0.1% CHAPS, pH 7.0) are added. After 1 h incubation at room temperature the HTRF is measured with an Envision multimode reader (Perkin Elmer LAS Germany GmbH) at excitation wavelength 340 nm (laser mode) and emission wavelengths 615 nm and 665 nm. The ratio of the emission signals is determined. The full value used is the inhibitor-free reaction. The pharmacological zero value used is XAV-939 (Tocris) in a final concentration of 5 μM. The inhibitory values (IC50) are determined using either the program Symyx Assay Explorer® or Condosseo® from GeneData.

Assay [2] deals with T2, GST-tagged Tankyrase-2 (873-1166 aa) (Homo sapiens, UniProt Q9H2K2).
T2 construct: GST-tagged Tankyrase-2 (873-1166 aa)
Kind of assay: Tankyrase 2 autoparsylation HTRF enzyme assay. The protocol:
as §1, §2, §3

The next assay addresses T3, His-tagged Parp-1 (Homo sapiens, UniProt P09874).
T3 construct: purchased Enzo Life Sciences GmbH, Lörrach, Germany
Nature of the assay: PARP-1 autoparsylation HTRF assay. The note with it: 150 min at 23° C. The text has this:
Description of the PARP1 Assay
Biochemical Activity Testing of PARP-1: Autoparsylation Assay
The autoparsylation assay is run in two steps: the enzymatic reaction in which His-tagged Parp-1 transfers biotinylated ADP-ribose/ADP-ribose to itself from biotinylated NAD/NAD as co-substrate and the detection reaction where a time resolved FRET between cryptate labelled anti-His antibody bound to the His tag of the enzyme and Xlent® labelled-streptavidin bound the biotin parsylation residue is analysed. The autoparsylation activity is detectable directly via the increase in HTRF signal.
The autoparsylation assay is performed as 384-well HTRF® (Cisbio, Codolet, France) assay format in Greiner low volume nb 384-well microtiter plates. 35 nM His-tagged Parp-1 (human, recombinant, Enzo Life Sciences GmbH, Lörrach, Germany) and a mixture of 125 nM bio-NAD (Biolog, Life science Inst., Bremen, Germany) and 800 nM NAD as co-substrate are incubated in a total volume of 6 μl (100 mM Tris/HCl, 4 mM Mg-chloride, 0.01% IGEPAL® CA630, 1 mM DTT, 0.5% DMSO, pH 8, 13 ng/μl activated DNA (BPS Bioscience, San Diego, US)) in the absence or presence of the test compound (10 dilution concentrations) for 150 min at 23° C. The reaction is stopped by the addition of 4 μl of the Stop/detection solution (70 nM SA-Xlent® (Cisbio, Codolet, France), 2.5 nM Anti-His-K® (Eu-labelled anti-His, Cisbio, Codolet, France) in 50 mM HEPES, 400 mM KF, 0.1% BSA, 20 mM EDTA, pH 7.0). After 1 h incubation at room temperature the HTRF is measured with an Envision multimode reader (Perkin Elmer LAS Germany GmbH) at excitation wavelength 340 nm (laser mode) and emission wavelengths 615 nm and 665 nm. The ratio of the emission signals is determined. The full value used is the inhibitor-free reaction. The pharmacological zero value used is Olaparib (LClabs, Woburn, US) in a final concentration of 1 μM. The inhibitory values (IC50) are determined using either the program Symyx Assay Explorer® or Condosseo® from GeneData.

Assay [3] has as its target T4, GST-tagged Tnks-1 (1023-1327 aa) (Homo sapiens, UniProt O95271).
T4 construct: GST-tagged Tnks-1 (1023-1327 aa, prepared in-house); made in house
Nature of the assay: TNKS1 activity ELISA (autoparsylation). The protocol: (§4) Description of the TNKS1 and TNKS2 ELISA Assay
(§5) Biochemical Activity Testing of TNKS 1 and 2: Activity ELISA (Autoparsylation Assay)
(§6) For analysis of autoparsylation activity of TNKS 1 and 2 an activity ELISA is performed: In the first step GST tagged TNKS is captured on a Glutathione coated plate. Then the activity assay with biotinylated NAD is performed in the absence/presence of the compounds. During the enzymatic reaction GST tagged TNKS transfers biotinylated ADP-ribose to itself from biotinylated NAD as co-substrate. For the detection streptavidin-HRP conjugate is added that binds to the biotinylated TNKS and is thereby captured to the plates. The amount of biotinylated resp. autoparsylated TNKS is detected with a luminescence substrate for HRP. The level of the luminescence signal correlates directly with the amount of autoparsylated TNKS and therefore with activity of TNKS.
(§7) The activity ELISA is performed in 384 well Glutathione coated microtiter plates (Express capture Glutathione coated plate, Biocat, Heidelberg, Germany). The plates are pre-equilibrated with PBS. Then the plates are incubated with 50 μl 20 ng/well GST-tagged Tnks-1 (1023-1327 aa, prepared in-house), respectively GST-tagged Tnks-2 (873-1166 aa, prepared in-house) in assay buffer (50 mM HEPES, 4 mM Mg-chloride, 0.05% Pluronic F-68, 2 mM DTT, pH 7.7) overnight at 4° C. The plates are washed 3 times with PBS-Tween-20. The wells are blocked by incubation at room temperature for 20 minutes with 50 μl blocking buffer (PBS, 0.05% Tween-20, 0.5% BSA). Afterwards the plates are washed 3 times with PBS-Tween-20. The enzymatic reaction is performed in 50 μl reaction solution (50 mM HEPES, 4 mM Mg-chloride, 0.05% Pluronic F-68, 1.4 mM DTT, 0.5% DMSO, pH 7.7) with 10 μM bio-NAD (Biolog, Life science Inst., Bremen, Germany) as co-substrate in the absence or presence of the test compound (10 dilution concentrations) for 1 hour at 30° C. The reaction is stopped by 3 times washing with PBS-Tween-20. For the detection 50 μl of 20 ng/μl Streptavidin, HRP conjugate (MoBiTec, Göttingen, Germany) in PBS/0.05% Tween-20/0.01% BSA are added and the plates are incubated for 30 minutes at room temperature. After three times washing with PBS-Tween-20 50 μl of SuperSignal ELISA Femto Maximum sensitivity substrate solution (ThermoFisherScientific (Pierce), Bonn, Germany) are added. Following a 1 minute incubation at room temperature luminescence signals are measured with an Envision multimode reader (Perkin Elmer LAS Germany GmbH) at 700 nm. The full value used is the inhibitor-free reaction. The pharmacological zero value used is XAV-939 (Tocris) in a final concentration of 5 μM. The inhibitory values (IC50) are determined using either the program Symyx Assay Explorer® or Condosseo® from GeneData.

Assay [4] concerns the target T5, GST-tagged Tnks-2 (873-1166 aa) (Homo sapiens, UniProt Q9H2K2).
T5 construct: GST-tagged Tnks-2 (873-1166 aa, prepared in-house); made in house
Nature of the assay: TNKS2 activity ELISA (autoparsylation). As to the method:
as §4, §5, §6, §7

Setting [5] is: HTRF autoparsylation, 90 min at 30° C, read-out: IC50 TNKS1 enzyme assay.
Setting [6] is: HTRF autoparsylation, 90 min at 30° C, read-out: IC50 TNKS2 enzyme assay.
Where [7] appears, read: activity ELISA, 1 hour at 30° C, read-out: IC50 TNKS1 ELISA.
Setting [8] is: activity ELISA, 1 hour at 30° C, read-out: IC50 TNKS2 ELISA.

Like-named read-outs stand apart in the source and are kept apart here. Where only a bound is given, the exact number is not on record here.

T3 sequence (P09874 whole entry): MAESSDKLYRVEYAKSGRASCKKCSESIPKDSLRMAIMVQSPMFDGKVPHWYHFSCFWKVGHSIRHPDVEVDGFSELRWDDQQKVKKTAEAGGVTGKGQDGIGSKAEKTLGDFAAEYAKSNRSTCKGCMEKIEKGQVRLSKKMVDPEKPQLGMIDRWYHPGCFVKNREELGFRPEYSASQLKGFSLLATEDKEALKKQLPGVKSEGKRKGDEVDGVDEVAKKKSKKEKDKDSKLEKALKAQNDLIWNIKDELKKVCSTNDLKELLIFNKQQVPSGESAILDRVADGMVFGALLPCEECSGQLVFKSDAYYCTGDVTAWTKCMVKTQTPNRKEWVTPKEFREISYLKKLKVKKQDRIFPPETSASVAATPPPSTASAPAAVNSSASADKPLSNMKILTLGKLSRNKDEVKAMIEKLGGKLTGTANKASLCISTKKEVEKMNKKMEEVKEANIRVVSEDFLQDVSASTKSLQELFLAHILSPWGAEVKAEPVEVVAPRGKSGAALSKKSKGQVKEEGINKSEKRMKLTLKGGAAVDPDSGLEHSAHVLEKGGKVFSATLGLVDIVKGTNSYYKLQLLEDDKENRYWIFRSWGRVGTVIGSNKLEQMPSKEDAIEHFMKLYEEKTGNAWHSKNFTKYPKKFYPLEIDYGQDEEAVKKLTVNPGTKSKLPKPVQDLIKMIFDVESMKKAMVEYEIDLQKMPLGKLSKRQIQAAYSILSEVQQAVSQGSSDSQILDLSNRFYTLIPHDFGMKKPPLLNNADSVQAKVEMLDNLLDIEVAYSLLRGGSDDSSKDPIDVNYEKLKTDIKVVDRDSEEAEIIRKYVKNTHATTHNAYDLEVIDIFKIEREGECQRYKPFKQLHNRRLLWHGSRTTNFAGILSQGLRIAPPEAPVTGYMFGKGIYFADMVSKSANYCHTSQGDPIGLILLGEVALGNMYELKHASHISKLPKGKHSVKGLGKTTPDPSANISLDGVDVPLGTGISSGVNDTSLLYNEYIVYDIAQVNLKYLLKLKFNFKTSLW
T1 sequence (O95271 1023-1327): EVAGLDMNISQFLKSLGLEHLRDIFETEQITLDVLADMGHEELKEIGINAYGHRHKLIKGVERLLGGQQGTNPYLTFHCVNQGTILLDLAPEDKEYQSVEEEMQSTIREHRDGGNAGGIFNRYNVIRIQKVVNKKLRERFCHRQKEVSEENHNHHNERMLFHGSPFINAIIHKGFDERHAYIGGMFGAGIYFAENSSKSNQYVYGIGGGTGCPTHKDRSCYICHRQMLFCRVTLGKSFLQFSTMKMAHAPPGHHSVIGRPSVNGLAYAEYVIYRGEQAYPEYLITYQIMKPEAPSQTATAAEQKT
T4 sequence (O95271 1023-1327): as above
T5 sequence (Q9H2K2 873-1166): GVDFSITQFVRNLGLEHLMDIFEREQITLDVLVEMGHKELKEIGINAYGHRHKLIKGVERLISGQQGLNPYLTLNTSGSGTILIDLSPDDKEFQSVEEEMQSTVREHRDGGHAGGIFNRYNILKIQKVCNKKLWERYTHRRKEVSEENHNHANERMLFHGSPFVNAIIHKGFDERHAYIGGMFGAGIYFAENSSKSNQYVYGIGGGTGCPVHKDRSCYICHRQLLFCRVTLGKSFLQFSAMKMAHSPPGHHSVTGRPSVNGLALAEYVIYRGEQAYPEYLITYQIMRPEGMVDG
T2 sequence (Q9H2K2 873-1166): as above

As for `O=C(Cc1cccc(OC(F)(F)F)c1)Nc1nncc2ccccc12` [Compound A5, N-phthalazin-1-yl-2-(3-trifluoromethoxyphenyl)-acetamide], the IC50 was in the range of 0.3 to 3 µM in assay [1] (setting [5]); 3 to 50 µM in assay [2] (setting [6]); 3 to 50 µM at His-tagged Parp-1; 0.3 to 3 µM in assay [3] (setting [7]); 0.3 to 3 µM in assay [4] (setting [8]).
Take `N#Cc1cccc(CC(=O)Nc2nncc3ccccc23)c1` [Compound A6, 2-(3-cyanophenyl)-N-phthalazin-1-yl-acetamide]: the IC50 lay within 0.3 to 3 µM in assay [1] (setting [5]); 3 to 50 µM in assay [2] (setting [6]); 0.3 to 3 µM against His-tagged Parp-1; 0.3 to 3 µM in assay [3] (setting [7]); 0.3 to 3 µM in assay [4] (setting [8]).
In the case of `O=C(Cc1cccc([N+](=O)[O-])c1)Nc1nncc2ccccc12` [Compound A7, 2-(3-nitrophenyl)-N-phthalazin-1-yl-acetamide], the IC50 (in assay [1]; in assay [2]; on His-tagged Parp-1; in assay [3]; in assay [4]) was 0.3 to 3 µM each time.
For the compound `O=C(Cc1ccc(OC(F)(F)F)cc1)Nc1nncc2ccccc12` [Compound A8, N-phthalazin-1-yl-2-(4-trifluoromethoxyphenyl)-acetamide], the concentration for half-maximal inhibition (IC50) is less than 0.3 µM in assay [1] (setting [5]); 0.3 to 3 µM in assay [2] (setting [6]); 3 to 50 µM against His-tagged Parp-1; less than 0.3 µM in assay [3] (setting [7]); less than 0.3 µM in assay [4] (setting [8]).
As to `CC(C)(C)c1ccc(CC(=O)Nc2nncc3ccccc23)cc1` [Compound A9, 2-(4-tert-butylphenyl)-N-phthalazin-1-yl-acetamide], the IC50 is 0.3 to 3 µM in assay [1] (setting [5]); 0.3 to 3 µM in assay [2] (setting [6]); 3 to 50 µM against His-tagged Parp-1; less than 0.3 µM in assay [3] (setting [7]); less than 0.3 µM in assay [4] (setting [8]).
Consider `O=C(Cc1c(Cl)cccc1Cl)Nc1nncc2ccccc12` [Compound A10, 2-(2,6-dichlorophenyl)-N-phthalazin-1-yl-acetamide], for which the IC50 (in assay [1] (setting [5]); in assay [2] (setting [6]); against His-tagged Parp-1) was 3 to 50 µM in each case.
Consider `CCOc1ccc(CC(=O)Nc2nncc3c(F)cccc23)cc1` [Compound A11, 2-(4-ethoxy-phenyl)-N-(5-fluoro-phthalazin-1-yl)-acetamide], for which the 50% inhibitory concentration (IC50) in assay [1] (setting [5]) and in assay [2] (setting [6]) was 3 to 50 µM each time.
Consider `COc1ccc(CC(=O)Nc2nncc3c(F)cccc23)cc1` [Compound A12, N-(5-fluoro-phthalazin-1-yl)-2-(4-methoxy-phenyl)-acetamide], for which the results for the IC50 in assay [1] (setting [5]) and in assay [2] (setting [6]) were 0.3 to 3 µM and 3 to 50 µM, respectively.
Regarding `O=C(CCC1CCCCC1)Nc1nncc2ccccc12` [Compound A13, 3-cyclohexyl-N-phthalazin-1-yl-propionamide], the IC50 in assay [1] (setting [5]) is 0.3 to 3 µM; in assay [2] (setting [6]) it was 0.3 to 3 µM; at His-tagged Parp-1 it was 3 to 50 µM; in assay [3] (setting [7]) it was less than 0.3 µM; in assay [4] (setting [8]), less than 0.3 µM.
Turning to `Cc1cccc2c(NC(=O)Cc3ccccc3)nncc12` [Compound A19, N-(5-methyl-phthalazin-1-yl)-2-phenyl-acetamide], the IC50 in assay [1] (setting [5]) and in assay [2] (setting [6]) was 3 to 50 µM in each case.
As for `COc1ccc(CC(=O)Nc2nncc3c(C)cccc23)cc1` [Compound A21, 2-(4-methoxy-phenyl)-N-(5-methyl-phthalazin-1-yl)-acetamide], the IC50 in assay [1] (setting [5]) and in assay [2] (setting [6]) was 3 to 50 µM in each case.

Source of the values: patent US9751842B2, “Phthalazine derivatives” (Merck Patent GmbH, priority 2013, dated 2017).
